PubChem BioAssay (NCI)
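Five compound concentrations were applied to cells in 96-well plates for 48 hours; endpoints were derived by simple linear interpolation of the resulting dose-response curve. At the TGI there is no net growth.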

What was measured:
Assay in all cases: NCI tumour cell line growth inhibition, 48 h
DMS 114 small cell lung = test system: DMS 114 small cell lung
CCRF-CEM leukemia = test system: CCRF-CEM leukemia
SF-295 CNS = test system: SF-295 CNS
SK-MEL-28 melanoma = test system: SK-MEL-28 melanoma
HOP-18 NSCLC = test system: HOP-18 NSCLC
DLD-1 colon = test system: DLD-1 colon
M19-MEL melanoma = test system: M19-MEL melanoma
IGROV1 ovarian = test system: IGROV1 ovarian
OVCAR-5 ovarian = test system: OVCAR-5 ovarian
HT29 colon = test system: HT29 colon
HOP-92 NSCLC = test system: HOP-92 NSCLC
UO-31 renal = test system: UO-31 renal
OVCAR-8 ovarian = test system: OVCAR-8 ovarian
HL-60(TB) leukemia = test system: HL-60(TB) leukemia
NCI-H226 lung = test system: NCI-H226 lung
SK-OV-3 ovarian = test system: SK-OV-3 ovarian
U251 CNS = test system: U251 CNS
SF-539 CNS = test system: SF-539 CNS
OVCAR-3 ovarian = test system: OVCAR-3 ovarian
COLO 205 colon = test system: COLO 205 colon
SNB-75 CNS = test system: SNB-75 CNS
UACC-257 melanoma = test system: UACC-257 melanoma
KM20L2 colon = test system: KM20L2 colon
LOX IMVI melanoma = test system: LOX IMVI melanoma
SW-620 colon = test system: SW-620 colon
RPMI-8226 leukemia = test system: RPMI-8226 leukemia
SK-MEL-5 melanoma = test system: SK-MEL-5 melanoma
CAKI-1 renal = test system: CAKI-1 renal
ACHN renal = test system: ACHN renal
SR leukemia = test system: SR leukemia
NCI-H23 lung = test system: NCI-H23 lung
M14 melanoma = test system: M14 melanoma
SK-MEL-2 melanoma = test system: SK-MEL-2 melanoma
K-562 leukemia = test system: K-562 leukemia
786-0 renal = test system: 786-0 renal
OVCAR-4 ovarian = test system: OVCAR-4 ovarian
DMS 273 small cell lung = test system: DMS 273 small cell lung
MALME-3M melanoma = test system: MALME-3M melanoma
SF-268 CNS = test system: SF-268 CNS
SNB-78 CNS = test system: SNB-78 CNS
TK-10 renal = test system: TK-10 renal
KM12 colon = test system: KM12 colon
NCI-H522 lung = test system: NCI-H522 lung
HCT-116 colon = test system: HCT-116 colon
A549 NSCLC = test system: A549 NSCLC
HCT-15 colon = test system: HCT-15 colon
NCI-H460 lung = test system: NCI-H460 lung
RXF 393 renal = test system: RXF 393 renal
HOP-62 NSCLC = test system: HOP-62 NSCLC
UACC-62 melanoma = test system: UACC-62 melanoma
SN12C renal = test system: SN12C renal
LXFL 529 NSCLC = test system: LXFL 529 NSCLC
SNB-19 CNS = test system: SNB-19 CNS
HCC-2998 colon = test system: HCC-2998 colon
XF 498 CNS = test system: XF 498 CNS
MOLT-4 leukemia = test system: MOLT-4 leukemia
EKVX NSCLC = test system: EKVX NSCLC

Cc1cc(=O)[nH]c(NNC(C#N)c2ccc(N(C)C)cc2)n1 (configuration not stated)
TGI (DMS 114 small cell lung): > 100 µM
TGI (CCRF-CEM leukemia): > 100 µM
TGI (SF-295 CNS): > 100 µM
TGI (SK-MEL-28 melanoma): > 100 µM
TGI (HOP-18 NSCLC): > 100 µM
TGI (DLD-1 colon): > 100 µM
TGI (M19-MEL melanoma): > 100 µM
TGI (IGROV1 ovarian): > 100 µM
TGI (OVCAR-5 ovarian): > 100 µM
TGI (HT29 colon): > 100 µM
TGI (HOP-92 NSCLC): > 100 µM
TGI (UO-31 renal): > 100 µM
TGI (OVCAR-8 ovarian): > 100 µM
TGI (HL-60(TB) leukemia): > 100 µM
TGI (NCI-H226 lung): > 100 µM
TGI (SK-OV-3 ovarian): > 100 µM
TGI (U251 CNS): > 100 µM
TGI (SF-539 CNS): > 100 µM
TGI (OVCAR-3 ovarian): > 100 µM
TGI (COLO 205 colon): > 100 µM
TGI (SNB-75 CNS): > 100 µM
TGI (UACC-257 melanoma): > 100 µM
TGI (KM20L2 colon): > 100 µM
TGI (LOX IMVI melanoma): > 100 µM
TGI (SW-620 colon): > 100 µM
TGI (RPMI-8226 leukemia): > 100 µM
TGI (SK-MEL-5 melanoma): > 100 µM
TGI (CAKI-1 renal): > 100 µM
TGI (ACHN renal): > 100 µM
TGI (SR leukemia): > 100 µM
TGI (NCI-H23 lung): > 100 µM
TGI (M14 melanoma): > 100 µM
TGI (SK-MEL-2 melanoma): > 100 µM
TGI (K-562 leukemia): > 100 µM
TGI (786-0 renal): > 100 µM
TGI (OVCAR-4 ovarian): > 100 µM
TGI (DMS 273 small cell lung): > 100 µM
TGI (MALME-3M melanoma): > 100 µM
TGI (SF-268 CNS): > 100 µM
TGI (SNB-78 CNS): > 100 µM
TGI (TK-10 renal): > 100 µM
TGI (KM12 colon): > 100 µM
TGI (NCI-H522 lung): > 100 µM
TGI (HCT-116 colon): > 100 µM
TGI (A549 NSCLC): > 100 µM
TGI (HCT-15 colon): > 100 µM
TGI (NCI-H460 lung): > 100 µM
TGI (RXF 393 renal): > 100 µM
TGI (HOP-62 NSCLC): > 100 µM
TGI (UACC-62 melanoma): > 100 µM
TGI (SN12C renal): > 100 µM

COc1cc(CC2C(=O)OCC2[C@@H](OC(C)=O)c2ccc3c(c2)OCO3)c(Br)c(OC)c1OC (some centres not stated)
TGI (DMS 114 small cell lung): > 100 µM
TGI (CCRF-CEM leukemia): > 100 µM
TGI (SF-295 CNS): > 100 µM
TGI (SK-MEL-28 melanoma): > 100 µM
TGI (HOP-18 NSCLC): > 100 µM
TGI (DLD-1 colon): > 100 µM
TGI (M19-MEL melanoma): > 100 µM
TGI (IGROV1 ovarian): > 100 µM
TGI (HT29 colon): > 100 µM
TGI (HOP-92 NSCLC): 92.7 µM
TGI (UO-31 renal): > 100 µM
TGI (OVCAR-8 ovarian): > 100 µM
TGI (HL-60(TB) leukemia): > 100 µM
TGI (SK-OV-3 ovarian): > 100 µM
TGI (SF-539 CNS): > 100 µM
TGI (OVCAR-3 ovarian): > 100 µM
TGI (COLO 205 colon): > 100 µM
TGI (SNB-75 CNS): > 100 µM
TGI (UACC-257 melanoma): > 100 µM
TGI (KM20L2 colon): > 100 µM
TGI (LOX IMVI melanoma): > 100 µM
TGI (SW-620 colon): > 100 µM
TGI (SK-MEL-5 melanoma): > 100 µM
TGI (CAKI-1 renal): > 100 µM
TGI (ACHN renal): > 100 µM
TGI (SR leukemia): > 100 µM
TGI (NCI-H23 lung): > 100 µM
TGI (LXFL 529 NSCLC): > 100 µM
TGI (M14 melanoma): > 100 µM
TGI (SK-MEL-2 melanoma): > 100 µM
TGI (SNB-19 CNS): > 100 µM
TGI (786-0 renal): > 100 µM
TGI (OVCAR-4 ovarian): > 100 µM
TGI (DMS 273 small cell lung): > 100 µM
TGI (MALME-3M melanoma): > 100 µM
TGI (HCC-2998 colon): > 100 µM
TGI (SF-268 CNS): > 100 µM
TGI (TK-10 renal): > 100 µM
TGI (KM12 colon): > 100 µM
TGI (XF 498 CNS): > 100 µM
TGI (MOLT-4 leukemia): > 100 µM
TGI (NCI-H522 lung): > 100 µM
TGI (HCT-116 colon): > 100 µM
TGI (A549 NSCLC): > 100 µM
TGI (HCT-15 colon): > 100 µM
TGI (NCI-H460 lung): > 100 µM
TGI (RXF 393 renal): > 100 µM
TGI (HOP-62 NSCLC): > 100 µM
TGI (UACC-62 melanoma): > 100 µM
TGI (EKVX NSCLC): > 100 µM
TGI (SN12C renal): > 100 µM
